Usually IC50 stands for the concentration at which inhibition is half-maximal. A lower IC50 goes with greater potency. As usually defined, the melting point is the temperature of the solid-liquid transition.

The test system of data set [1] is A-549 cells. Put plainly: MTT cell viability assay, A-549. The format is cell-based, human. Particulars: for IC50: Homo sapiens, A549, MTT, 72 h, IC50 ± SD. The protocol:
(§1) To evaluate the effects of the newly synthesized tetrahydroquinolin-2(1H)-one derivatives on cell viability, we treated human colon cancer cells HCT-116, human breast cancer cells MCF-7, and human non-small cell lung cancer cells A-549 with different concentrations of the compounds for 72 h. After incubation, the MTT (3-(4,5-dimethylthiazol-2-yl)-2,5-diphenyltetrazolium bromide) assay was performed and the cytotoxic potency of compounds (expressed in IC50) on the cells was determined in comparison to control cells treated with 1% of dimethyl sulfoxide (DMSO) (Table 1). […] We also compared the activity of 20d and 19b to the reference control drug Cisplatin, which is widely used in chemotherapy.
(§2) A-549 (CCL-185) and MCF-7 ([…]) cells were cultured in RPMI-1640 medium, while HCT-116 (CVCL-427), (hMLH1)-deficient (MMR^–) and hMLH1-proficient (MMR^+) RKO cells were cultured in McCoy’s 5A medium. The culture media were supplemented with 10% fetal bovine serum, 2 mM L-glutamine, and antibiotics (penicillin 62.6 µg/ml and streptomycin 40 µg/ml). Cultivation of cell lines was carried out at 37 °C under a humidified atmosphere containing 5% CO2, and the cultures were routinely screened for Mycoplasma contamination. A-549, MCF-7, and HCT-116 cells were obtained from American Type Culture Collection (ATCC), while RKO colon carcinoma cells were a kind gift of Dr Timothy Kinsella (Brown University, USA).
(§3) The viability of cells was determined in response to the newly synthesized compounds using the MTT (Sigma-Aldrich) assay. Briefly, cells were seeded into 96-well plates and allowed to attach overnight. Then, cells were exposed to various concentrations of compounds for 24, 48 or 72 h. Negative controls were treated with the same amount of DMSO solvent (1%). After treatment, the MTT solution (0.4 mg/ml) was added to each well and allowed to react with cells for 2–3 h at 37 °C. Next, the medium was removed, the formazan product formed was dissolved in 100 μl of DMSO, and the absorbance was determined at 540 nm using an ASYS UVM340 microplate reader (Biochrom Ltd.). The IC50 value, which represents the concentration of the compound required to inhibit cell growth by 50% compared to vehicle, was calculated using GraphPad Prism 8 software based on the curves plotting survival against dose averaged from at least three independent experiments.

Data set [2] concerns HCT-116 cells. Put plainly: MTT cell viability assay, HCT-116. It counts as cell-based, human. Particulars: 72 h; for IC50: MTT, IC50 ± SD; for cytotoxicity on tested cell lines: HCT-116, MCF-7, A-549, concentrations up to 50 µM. The protocol:
as §1, §2, §3
A general note: Tetrazolium assays rely on reduction of a dye to a coloured formazan, in cell work by metabolically active cells.

Data set [3] has as its system MCF-7 cells. In words: MTT cell viability assay, MCF-7. It counts as cell-based, human. The following applies: Homo sapiens, MCF7, 72 h, IC50 ± SD. How it is done: as §1, §2, §3
The subject of data set [4] is HEK293 cells. Put plainly: MTT cell viability assay, HEK293. It counts as cell-based, human. The following applies: Homo sapiens, HEK293, IC50 ± SD.
Data set [5] concerns HCT-116 cells. Put plainly: Cell cycle distribution analysis by flow cytometry (PI staining). The format is cell-based, human. Particulars: HCT-116, 24 to 72 h, vs vehicle. How it is done: Based on their antiproliferative activity, 20d and 19b were evaluated for their effect on cell cycle phase distribution and DNA content by flow cytometry.
HCT-116 and A-549 cells were seeded into culture plates and allowed to attach overnight. Then, cells were incubated with the investigated compounds for the indicated time points. After incubation, the harvested cells were fixed with ice-cold 75% ethanol and stored overnight at − 20 °C. Next, cells were rehydrated with PBS in ice for 15 min and washed twice in PBS. Finally, cells were stained with […] propidium iodide (PI) and […] RNase A in PBS for 30 min at room temperature. Cell cycle distribution was determined using a Guava easyCyte 8 flow cytometer (Merck Millipore) and FlowJo v10 software.

Data set [6] deals with HCT-116 cells. In words: Colony formation (clonogenic) assay. The format is cell-based, human. The following applies: HCT-116, 24 h pretreatment, 9 days culture. The protocol: A total of 500 HCT-116 cells/well was seeded into six-well plates. After attachment, cells were pretreated with DMSO (1%) or various concentrations of 20d and 19b for 24 h. Following incubation, the medium was changed, and cells were cultured for 9 days. After culturing, cells were washed with phosphate-buffered saline (PBS), fixed with 100% methanol for 30 min, and then stained with 0.5% crystal violet for 15 min. The plates were air-dried, and visible colonies were counted using ImageJ software. The percentage viability of cells was calculated in comparison to the control.

The structures appear in SMILES notation.

Take `O=C(Nc1ccccc1)OC1CCCc2c(-c3ccccc3)cc(=O)[nH]c21` (stereo not shown) [Compound 20a, (2-oxo-4-phenyl-5,6,7,8-tetrahydroquinolin-8-yl) N-phenylcarbamate]: the melting point lay within 144 to 146 °C. The compound further had an IC50 in data set [1] of 21.8 ± 0.22 µM. The 50% inhibitory concentration (IC50) in data set [2] (Homo sapiens, HCT-116, 72 h) was about 13 µM. The compound also had an IC50 in data set [2] of 13.1 ± 1.55 µM. This compound also yielded a half-inhibitory concentration (IC50) in data set [3] of over 50 µM. In addition, in data set [4], the IC50 is over 50 µM.

Compound `OC1CCCc2c(-c3ccccc3)cc(Cl)nc21` (stereo not shown) [Compound 16, 2-chloro-4-phenyl-5,6,7,8-tetrahydroquinolin-8-ol] displayed a melting point of 88 to 90 °C. This compound registered an IC50 in data set [1] of over 50 µM. Further, in data set [2], the “cytotoxicity on tested cell lines” value is reported as “no cytotoxicity”. In data set [2] (Homo sapiens, HCT-116, 72 h), the IC50 is over 50 µM. This compound came in with an IC50 in data set [3] of over 50 µM. The compound also returned an IC50 in data set [4] of over 50 µM.

`O=C(Nc1ccc(F)cc1)OC1CCCc2c(-c3ccccc3)cc(Cl)nc21` (stereo not shown) [Compound 18c, (2-chloro-4-phenyl-5,6,7,8-tetrahydroquinolin-8-yl) N-(4-fluorophenyl)carbamate]: the melting point fell in the range of 113 to 115 °C. In data set [1], this compound showed a half-inhibitory concentration (IC50) of 23.8 ± 4.02 µM. Besides, the IC50 in data set [2] (Homo sapiens, HCT-116, 72 h) is 18.9 ± 1.26 µM. Moreover, the IC50 in data set [3] is over 50 µM. The compound further displayed an IC50 in data set [4] of over 50 µM.

With `COc1cc(-c2ccccc2)c2c(n1)C(OC(=O)Nc1ccc([N+](=O)[O-])cc1)CCC2` (stereo not shown) [Compound 19b, (2-methoxy-4-phenyl-5,6,7,8-tetrahydroquinolin-8-yl) N-(4-nitrophenyl)carbamate], the melting point was 183 to 185 °C. The “fold lower concentration than Cisplatin suppressing 50% of cell viability” value in data set [1] (A-549) was determined as 5 fold. This compound also had an IC50 in data set [1] of 15.7 ± 2.56 µM. In addition, in data set [5], the “increase in the number of cells in the G0/G1 phase” value is reported as under 14% and the “number of cells in the S-phase” value is listed as “substantial decrease”. In data set [2] (Homo sapiens, HCT-116, 72 h), the IC50 was about 13 µM. The IC50 in data set [2] was 13.5 ± 0.2 µM. The same compound returned an IC50 in data set [3] of over 50 µM. For the same compound, in data set [6], the formation of colonies entry is “effectively inhibited the formation of colonies in a concentration-dependent manner”. This compound yielded an IC50 in data set [4] of over 50 µM.

The compound `O=C1CCCc2c(-c3ccccc3)cc(Cl)nc21` [Compound 21, 2-chloro-4-phenyl-6,7-dihydro-5H-quinolin-8-one] registered a melting point of 135 to 137 °C. Besides, in data set [1], the IC50 is over 50 µM. For the same compound, the “cytotoxicity on tested cell lines” value in data set [2] was “no cytotoxicity”. The compound further had a half-maximal inhibitory concentration (IC50) in data set [2] (Homo sapiens, HCT-116, 72 h) of over 50 µM. The same compound came in with an IC50 in data set [3] of over 50 µM. In data set [4], this compound yielded an IC50 of over 50 µM.

With `COc1cc(-c2ccccc2)c2c(n1)C(=O)CCC2` [Compound 22, 2-methoxy-4-phenyl-6,7-dihydro-5H-quinolin-8-one], the melting point was in the range of 127 to 129 °C. The compound further showed an IC50 in data set [1] of over 50 µM. For the same compound, in data set [2], the “cytotoxicity on tested cell lines” value is “no cytotoxicity”. Besides, the half-inhibitory concentration (IC50) in data set [2] (Homo sapiens, HCT-116, 72 h) is over 50 µM. For the same compound, the IC50 in data set [3] is over 50 µM. This compound also gave a 50% inhibitory concentration (IC50) in data set [4] of over 50 µM.

The compound `COc1cc(-c2ccccc2)c2c(n1)C(O)CCC2` (stereo not shown) [Compound 17, 2-methoxy-4-phenyl-5,6,7,8-tetrahydroquinolin-8-ol] returned a melting point of 61 to 63 °C. Besides, the IC50 in data set [1] is over 50 µM. Further, in data set [2], the “cytotoxicity on tested cell lines” value is reported as “no cytotoxicity”. This compound gave an IC50 in data set [2] (Homo sapiens, HCT-116, 72 h) of over 50 µM. The compound also displayed an IC50 in data set [3] of over 50 µM. The compound also gave an IC50 in data set [4] of over 50 µM.

Compound `O=C(Nc1ccccc1)OC1CCCc2c(-c3ccccc3)cc(Cl)nc21` (stereo not shown) [Compound 18a, (2-chloro-4-phenyl-5,6,7,8-tetrahydroquinolin-8-yl) N-phenylcarbamate] yielded a melting point of 148 to 150 °C. In addition, the midpoint of inhibition in data set [1], the IC50, lay at 27.2 ± 1.53 µM. The compound further registered an IC50 in data set [2] (Homo sapiens, HCT-116, 72 h) of 39.8 ± 2.62 µM. For the same compound, in data set [3], the IC50 is over 50 µM. This compound came in with an IC50 in data set [4] of over 50 µM.

`O=C1CCCc2c(-c3ccccc3)cc(=O)[nH]c21` [Compound 23, 4-phenyl-1,5,6,7-tetrahydroquinoline-2,8-dione]: the melting point fell in the range of 182 to 184 °C. The compound further returned an IC50 in data set [1] of over 50 µM. In data set [2], the “cytotoxicity on tested cell lines” value is “no cytotoxicity”. The IC50 in data set [2] (Homo sapiens, HCT-116, 72 h) is over 50 µM. The compound further registered an IC50 in data set [3] of over 50 µM. The compound also displayed an IC50 in data set [4] of over 50 µM.

As to `O=C(Nc1ccc([N+](=O)[O-])cc1)OC1CCCc2c(-c3ccccc3)cc(=O)[nH]c21` (stereo not shown) [Compound 20b, (2-oxo-4-phenyl-5,6,7,8-tetrahydroquinolin-8-yl) N-(4-nitrophenyl)carbamate], the melting point lay within 225 to 227 °C. In data set [1], this compound gave an IC50 of over 50 µM. Further, in data set [2] (Homo sapiens, HCT-116, 72 h), the IC50 is over 50 µM. This compound had an IC50 in data set [3] of over 50 µM. Besides, the IC50 in data set [4] was over 50 µM.

`O=c1cc(-c2ccccc2)c2c([nH]1)C(O)CCC2` (stereo not shown) [Compound 24, 8-hydroxy-4-phenyl-5,6,7,8-tetrahydro-1H-quinolin-2-one]: the melting point is 104 to 106 °C. In data set [1], this compound came in with an IC50 of over 50 µM. For the same compound, in data set [2], the “cytotoxicity on tested cell lines” value is reported as “no cytotoxicity”. Moreover, the IC50 in data set [2] (Homo sapiens, HCT-116, 72 h) was over 50 µM. This compound displayed an IC50 in data set [3] of over 50 µM. This compound also came in with an IC50 in data set [4] of over 50 µM.

As to `COc1cc(-c2ccccc2)c2c(n1)C(OC(=O)Nc1ccc(Cl)cc1)CCC2` (stereo not shown) [Compound 19e, (2-methoxy-4-phenyl-5,6,7,8-tetrahydroquinolin-8-yl) N-(4-chlorophenyl)carbamate], the melting point is 144 to 146 °C. This compound also gave an IC50 in data set [1] of over 50 µM. The same compound yielded an IC50 in data set [2] (Homo sapiens, HCT-116, 72 h) of about 13 µM. Further, the IC50 in data set [2] was determined as 13.9 ± 1.3 µM. The IC50 in data set [3] is over 50 µM. Also, the IC50 in data set [4] is over 50 µM.

Source of the values: publication PMC9200803, “Design, synthesis, and biological evaluation of tetrahydroquinolinones and tetrahydroquinolines with anticancer activity” (Scientific Reports, 2022).
